Results reported in ChEMBL document CHEMBL1149421, “Potent 4-arylalkyl-substituted 3-isothiazolol GABA(A) competitive/noncompetitive antagonists: synthesis and pharmacology” (J Med Chem, 2006).

How the values were obtained:
[1] = target: GABA A receptor alpha-5/beta-3/gamma-2 (Rattus norvegicus, UniProt P18508+P19969+P63079); test: Displacement of [3H]muscimol from GABAA alpha-1-beta-3-gamma-2S in rat brain membrane; assay type: cell membranes
[2] = target: T1, GABA-A receptor; alpha-1/beta-3/gamma-2 (Homo sapiens, UniProt P14867+P18507+P28472); test: Binding affinity at human GABAA alpha-1-beta-3-gamma-2S expressed in Xenopus oocytes by voltage-clamp electrophysiology; assay type: functional, cell-based, Oocyte
T1 sequence (P14867 whole entry): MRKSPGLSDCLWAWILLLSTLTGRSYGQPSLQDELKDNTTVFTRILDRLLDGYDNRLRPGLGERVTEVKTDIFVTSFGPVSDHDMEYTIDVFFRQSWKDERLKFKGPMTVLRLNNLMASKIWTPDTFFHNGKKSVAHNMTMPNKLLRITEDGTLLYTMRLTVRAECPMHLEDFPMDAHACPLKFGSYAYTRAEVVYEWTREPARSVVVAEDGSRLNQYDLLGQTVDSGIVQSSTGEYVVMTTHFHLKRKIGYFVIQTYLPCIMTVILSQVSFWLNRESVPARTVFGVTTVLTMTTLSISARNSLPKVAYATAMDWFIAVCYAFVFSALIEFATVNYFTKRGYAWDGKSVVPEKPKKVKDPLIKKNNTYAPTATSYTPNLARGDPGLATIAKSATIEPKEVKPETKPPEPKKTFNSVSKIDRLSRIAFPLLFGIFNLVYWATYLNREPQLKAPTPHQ
T1 sequence (P18507 whole entry): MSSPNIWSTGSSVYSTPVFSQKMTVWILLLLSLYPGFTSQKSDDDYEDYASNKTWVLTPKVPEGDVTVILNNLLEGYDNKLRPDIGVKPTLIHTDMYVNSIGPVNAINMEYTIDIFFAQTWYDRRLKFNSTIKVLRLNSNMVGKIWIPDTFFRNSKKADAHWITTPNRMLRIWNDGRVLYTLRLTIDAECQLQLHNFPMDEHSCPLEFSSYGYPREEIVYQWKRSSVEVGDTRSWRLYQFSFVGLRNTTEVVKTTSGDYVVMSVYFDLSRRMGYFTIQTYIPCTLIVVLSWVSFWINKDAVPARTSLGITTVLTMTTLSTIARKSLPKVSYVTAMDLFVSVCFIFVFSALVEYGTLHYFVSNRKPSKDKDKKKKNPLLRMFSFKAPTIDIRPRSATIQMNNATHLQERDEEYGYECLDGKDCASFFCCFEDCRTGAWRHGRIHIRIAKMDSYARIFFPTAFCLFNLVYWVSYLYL
T1 sequence (P28472 whole entry): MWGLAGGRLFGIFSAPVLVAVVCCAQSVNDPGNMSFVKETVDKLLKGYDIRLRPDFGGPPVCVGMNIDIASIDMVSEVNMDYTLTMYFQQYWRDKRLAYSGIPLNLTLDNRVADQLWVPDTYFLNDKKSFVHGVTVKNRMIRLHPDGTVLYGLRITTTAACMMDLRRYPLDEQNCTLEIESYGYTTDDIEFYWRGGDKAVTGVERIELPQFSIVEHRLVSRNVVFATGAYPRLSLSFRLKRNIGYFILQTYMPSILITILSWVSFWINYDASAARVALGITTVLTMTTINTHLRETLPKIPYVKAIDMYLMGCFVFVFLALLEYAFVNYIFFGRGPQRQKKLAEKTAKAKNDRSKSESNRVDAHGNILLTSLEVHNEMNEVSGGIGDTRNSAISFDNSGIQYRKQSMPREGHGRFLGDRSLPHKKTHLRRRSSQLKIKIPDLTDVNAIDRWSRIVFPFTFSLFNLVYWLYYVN

[3] = Binding affinity at human GABAA alpha-4-beta-3-delta expressed in Xenopus oocytes by voltage-clamp electrophysiology; assay type: functional, cell-based; conditions: oocyte
[4] = target: GABA-A receptor; alpha-1/beta-3/gamma-2 (Homo sapiens) (UniProt P14867+P18507+P28472); test: Maximal effect at GABA alpha-1-beta-3-gamma-2S expressed in Xenopus oocytes; assay type: functional, cell-based; conditions: Oocyte
[5] = Maximal effect at GABA alpha-4-beta-3-delta expressed in Xenopus oocytes; assay type: functional; conditions: Homo sapiens, Oocyte

Sequence of GABA A receptor alpha-5/beta-3/gamma-2 (P18508 whole entry): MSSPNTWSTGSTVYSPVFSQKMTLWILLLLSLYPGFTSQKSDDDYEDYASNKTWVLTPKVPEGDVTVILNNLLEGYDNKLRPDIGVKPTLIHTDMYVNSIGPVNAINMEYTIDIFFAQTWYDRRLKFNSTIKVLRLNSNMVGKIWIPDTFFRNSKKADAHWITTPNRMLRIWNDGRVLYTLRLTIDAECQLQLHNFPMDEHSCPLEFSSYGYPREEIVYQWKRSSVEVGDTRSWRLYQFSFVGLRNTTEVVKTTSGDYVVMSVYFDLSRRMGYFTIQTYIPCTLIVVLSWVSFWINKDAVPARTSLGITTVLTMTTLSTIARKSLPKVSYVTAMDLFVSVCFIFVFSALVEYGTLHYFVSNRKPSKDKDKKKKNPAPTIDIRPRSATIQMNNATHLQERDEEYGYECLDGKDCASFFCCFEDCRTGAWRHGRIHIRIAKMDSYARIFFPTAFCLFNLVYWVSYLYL
Sequence of GABA A receptor alpha-5/beta-3/gamma-2 (P19969 whole entry): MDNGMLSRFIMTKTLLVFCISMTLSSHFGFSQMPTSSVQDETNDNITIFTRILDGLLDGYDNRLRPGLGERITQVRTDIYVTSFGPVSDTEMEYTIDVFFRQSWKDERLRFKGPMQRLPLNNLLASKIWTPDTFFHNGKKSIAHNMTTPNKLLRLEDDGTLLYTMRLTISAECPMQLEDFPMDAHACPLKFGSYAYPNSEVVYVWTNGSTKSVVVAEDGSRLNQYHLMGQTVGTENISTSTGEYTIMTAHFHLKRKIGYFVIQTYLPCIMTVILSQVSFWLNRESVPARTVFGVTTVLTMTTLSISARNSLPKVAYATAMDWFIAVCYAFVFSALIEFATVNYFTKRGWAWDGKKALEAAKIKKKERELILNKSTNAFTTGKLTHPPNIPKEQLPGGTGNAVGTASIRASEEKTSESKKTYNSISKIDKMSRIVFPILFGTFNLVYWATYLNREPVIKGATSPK
Sequence of GABA A receptor alpha-5/beta-3/gamma-2 (P63079 whole entry): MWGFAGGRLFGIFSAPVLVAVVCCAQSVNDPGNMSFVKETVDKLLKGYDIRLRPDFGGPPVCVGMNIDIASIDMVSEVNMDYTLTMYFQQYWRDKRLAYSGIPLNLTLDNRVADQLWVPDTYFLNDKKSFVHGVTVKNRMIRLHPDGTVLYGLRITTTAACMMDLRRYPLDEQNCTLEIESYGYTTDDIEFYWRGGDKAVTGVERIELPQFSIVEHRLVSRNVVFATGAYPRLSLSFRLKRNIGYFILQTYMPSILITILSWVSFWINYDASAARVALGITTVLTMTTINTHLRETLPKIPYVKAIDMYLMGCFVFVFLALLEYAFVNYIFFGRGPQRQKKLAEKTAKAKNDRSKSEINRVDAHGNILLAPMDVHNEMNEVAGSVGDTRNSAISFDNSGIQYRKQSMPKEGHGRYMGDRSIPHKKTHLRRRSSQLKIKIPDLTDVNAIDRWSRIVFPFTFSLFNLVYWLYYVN

SMILES | Ki [1] | Ki [2] | Ki [3] | Emax [4] | Emax [5]
Oc1cc(C2CCNCC2)sn1 | 1870 nM | 25700 nM | – | – | –
CCCc1c(C2CCNCC2)s[nH]c1=O | 440 nM | 230 nM | – | – | –
Cc1c(O)nsc1C1CCNCC1 | 2200 nM | 2880 nM | – | – | –
O=c1[nH]sc(C2CCNCC2)c1CC(c1ccccc1)c1ccccc1 | 388 nM | 720 nM | – | – | –

Now those with a lower Ki [1], led by results:

Ki [1] | Ki [2] | Ki [3] | Emax [4] | SMILES | Emax [5]
68 nM | 20 nM | 2.3 nM | 90% | Oc1noc(C2CCNCC2)c1CCC(c1ccccc1)c1ccccc1 | –
331 nM | 465 nM | – | – | Oc1nsc(C2CCNCC2)c1Cc1ccccc1 | –
9.6 nM | 1.2 nM | 0.35 nM | – | Oc1nsc(C2CCNCC2)c1CCC(c1ccccc1)c1ccccc1 | 40%
5.2 nM | 22 nM | – | – | Oc1nsc(C2CCNCC2)c1Cc1ccc2ccccc2c1 | –
49 nM | 370 nM | – | – | Oc1noc(C2CCNCC2)c1Cc1ccc2ccccc2c1 | –
1.8 nM | 3 nM | – | – | Oc1nsc(C2CCNCC2)c1Cc1ccc2ccccc2c1Br | –
